Tested on: stoats
Experiment: Dermal application of test solution to wild-caught stoats (Example 2 study)
Assay type: in vivo
Method: A test solution of approximately 100 ml was formulated, containing Vitamin D3 (cholecalciferol) resin in the solvent absolute alcohol. The concentration of cholecalciferol in the solution was about 40% w/v. The formulation was designed to kill stoats.
Wild-caught adult stoats (three male and three female) were housed in outdoor cages (60×150×90 cm). Each stoat was provided with a nest box (40×33×15 cm) containing shredded paper as nesting material. Stoats were fed a rotation of, dead day-old chicks, chicken pet mince and mutton/beef pet mince in the afternoon and had free access to water.
They were acclimatised to captivity for at least 5 months prior to being used in the trial. The stoats were lightly anaesthetised with isoflurane, weighed and then had 1.5 ml of the test solution applied to their skin and fur, using a syringe to deliver a line of solution along the spine from the nape to the base of the tail. This was a ‘high exposure’ simulation of the manner in which the delivery system would apply a toxic solution to the fur and skin of stoats.
After application of the solution, the stoats were placed into large nest boxes which were lined with paper but without bedding material, to facilitate observation. Dark Perspex lids were kept on the nest boxes to minimise disturbance of stoats by human observers. The stoats were monitored constantly through recovery from anaesthesia and then for the next three hours to record their responses to the solution on their coats and document any behaviour associated with its presence e.g. grooming, rubbing or rolling. After the three hour observation period in the boxes, stoats were returned to their outdoor cages with nesting material, food and water freely available. […] After this, observations of each stoat were recorded once daily, noting any signs of illness that are associated with cholecalciferol poisoning, e.g. stop feeding, significant body weight loss. Where any signs of illness occurred, the monitoring was to be increased to twice daily (morning and afternoon).
Feed intakes of the stoats were visually estimated for at least three days prior to dosing, i.e. ration all eaten, half eaten, quarter eaten, none eaten. Food intake was similarly noted daily after dosing through until death or 21 days (whichever occurred first). Stoats were weighed at least once a week after dosing, through to death or 21 days (which ever occurred first). Any stoats that died during the 21 day observation were to be retained for necropsy. Typical signs of poisoning (inappetance combined with significant body weight loss) were used as an alternative endpoint for the trial, with a weight loss greater than 25% of bodyweight at dosing triggering euthanasia. Stoats that survived the 21 day observation were to be euthanized.

[1] = Stoat Female 407, 193 g at dosing, 2331 mg/kg dermal
[2] = Stoat Male 391, 235 g at dosing, 1914 mg/kg dermal
[3] = Stoat Male 415, 382 g at dosing, 1178 mg/kg dermal
[4] = Stoat Male 419, 359 g at dosing, 1253 mg/kg dermal

C=C1CC[C@H](O)C/C1=C/C=C1\CCC[C@]2(C)[C@@H]([C@H](C)CCCC(C)C)CC[C@@H]12 [cholecalciferol]
% weight loss at death (Stoat Female 407, 2331 mg/kg dermal): 46% | Fate (days after dosing) (Stoat Female 407, 193 g at dosing, 1.5 ml test solution, estimated exposure 2331 mg/kg): died (12) | Weight at day 7 [1]: 151 g | Weight at day 12 [1]: 112 g | % weight loss at death (Stoat Female 413, 2486 mg/kg dermal): 44% | Fate (days after dosing) (Stoat Female 413, 181 g at dosing, 1.5 ml test solution, estimated exposure 2486 mg/kg): died (11) | Weight at day 7 (Stoat Female 413, 181 g at dosing, 2486 mg/kg dermal): 120 g | % weight loss at death (Stoat Female 414, 2205 mg/kg dermal): 13% | Fate (days after dosing) (Stoat Female 414, 204 g at dosing, 1.5 ml test solution, estimated exposure 2205 mg/kg): died (4) | % weight loss at death (Stoat Male 391, 1914 mg/kg dermal): 30% | Fate (days after dosing) (Stoat Male 391, 235 g at dosing, 1.5 ml test solution, estimated exposure 1914 mg/kg): euthanized (12) | Weight at day 7 [2]: 188 g | Weight at day 12 [2]: 166 g | % weight loss at death (Stoat Male 415, 1178 mg/kg dermal): 36% | Weight at day 7 [3]: 296 g | Weight at day 12 [3]: 254 g | Fate (days after dosing) (Stoat Male 415, 382 g at dosing, 1.5 ml test solution (nominal 40%, assayed 30%, absolute alcohol), estimated exposure 1178 mg/kg): euthanized (12) | % weight loss at death (Stoat Male 419, 1253 mg/kg dermal): 37% | Weight at day 7 [4]: 277 g | Weight at day 12 [4]: 253 g | Fate (days after dosing) (Stoat Male 419, 359 g at dosing, 1.5 ml test solution, estimated exposure 1253 mg/kg): euthanized (12) | inappetance (stop feed effect) (from the first night after dosing, generally eating less than half of rations each day): All six stoats showed inappetance | effective lethal dermal exposure (in excess of or equal to a dermal LD99 value) (lower end of exposure range in stoats, test solution in absolute alcohol): 1178 mg/kg | cages with vomitus present (morning after return to outdoor cages, 1.5 ml test solution): three of the 6 | mortality (number of stoats) (six stoats, over 12 days after dosing, 1.5 ml test solution): three | necropsy findings (stoats that died): no gross evidence of calcification/mineralisation or lung damage | time of euthanasia after dosing (weight loss endpoint), male stoats (three male stoats, 1.5 ml test solution, 1178-1914 mg/kg): 12 days
